Measurements published in patent EP0324212A1, “Glucuronic acid derivatives of opioid antagonists” (BAKER NORTON PHARMACEUTICALS, INC., priority 1988, dated 1989).
“And” between values parts separate entries of the source, which are not always exact repeats. Identical values can stand only once. Counter-ions that a name gives are not always drawn. Marks after values point to notes of the source that are not given here.

Legend:
[1] = test system: morphine-induced hypomotility; experiment: Charcoal meal assay (gastrointestinal motility) of Witkin et al.; assay type: in vivo, mice; conditions: for effect on percentage of intestine traveled in the absence of morphine: groups 4 and 6, no morphine; for effect on percentage of intestine traveled in the absence of morphine / alleviation of the depressant effect of morphine on intestinal transit: result in words; for alleviation of the depressant effect of morphine on intestinal transit: groups 5 and 7, morphine 10 mg/kg p.o.
Excerpt: To determine whether nalmefene glucuronide would alleviate morphine-induced hypomotility, the charcoal meal assay method of Witkin et al. (J. Pharmacol. Ext. Therep., 133: 400, 1961) was done on 56 mice. […]

[2] = Absorption and intestinal distribution of 14C labelled nalmefene glucuronide after oral administration; assay type: in vivo; conditions: rats
Excerpt: However the 2-3% of the dose which had reached the cecum by this time was almost exclusively free nalmefene. Therefore the glucuronide of an opioid antagonist provides a means of preventing narcotic-induced intestinal hypomotility without interfering with central nervous system effects of narcotics, such as analgesia.

opioid-dependant animals = experiment: Rapid Quantitative In Vivo Assay for Narcotic Antagonist of Katovich et al. (skin tail temperature rise as a CNS withdrawal sign); conditions: Figure 2; injection of 1000 µg/kg
Excerpt: The Rapid Quantitative In Vivo Assay for Narcotic Antagonist of Katovich et al. (Substance and Alcohol Actions/Misuse, vol 5: 87095, 1984) was used. This assay is based on the extreme sensitivity of opioid-dependant animals to narcotic antagonists. Injection of these animals with a narcotic antagonist produces severe central nervous system withdrawal signs. One of these signs is an abrupt rise in the skin temperature of the tail.

[3] = Morphine 10 mg/kg p.o. 30 minutes before drug p.o., 15 mg/kg or 2.9 x 10⁻⁶ M/kg nalmefene glucuronide, 2.9 x 10⁻⁶ M/kg nalmefene HCl, determined 30 min later
[4] = Saline p.o. 30 minutes before drug p.o. (no morphine), 15 mg/kg or 2.9 x 10⁻⁶ M/kg nalmefene glucuronide, 2.9 x 10⁻⁶ M/kg nalmefene HCl, determined 30 min later

Row | SMILES | Percent Meal Traveled ± S.E.M. ([1]; mouse, in vivo) | reduction of the percentage of the intestine traveled ([1]; mouse, in vivo) | absorption following oral administration ([2]; doses as high as 40 mg/kg) | dose present in the small intestine still as nalmefene glucuronide ([2]; oral, 2 hours after dosing) | radioactivity in plasma ([2]; oral, 2 hours after dosing) | rise in skin tail temperature (opioid-dependant animals) | Percent Meal Traveled ± S.E.M. [1, 3] | Percent Meal Traveled ± S.E.M. [1, 4] | effect on percentage of intestine traveled in the absence of morphine [1] | alleviation of the depressant effect of morphine on intestinal transit ([1]; listed as nalmefene glucuronide) | alleviation of the depressant effect of morphine on intestinal transit ([1]; listed as nalmefene-3β-D-glucuronide) | alleviation of the depressant effect of morphine on intestinal transit ([1]; listed as nalmefene-β-D-glucuronide) | alleviation of the depressant effect of morphine on intestinal transit [1]
1 | CN1CC[C@]23c4c5ccc(O)c4O[C@H]2[C@@H](O)C=C[C@H]3[C@H]1C5 [Morphine] | 28 ± 2 (N=8)^c Percent and 31 ± 3 (N=8)^c,^g Percent | more than half |  |  |  |  |  |  |  |  |  |  | 
2 | C=C1CCC2(O)C3Cc4ccc(OC5OC(C(=O)O)C(O)C(O)C5O)c5c4C2(CCN3CC2CC2)C1O5 [Nalmefene Glucuronide, nalmefene-3β-D-glucuronide] |  |  | not absorbed to any measurable extent | about 85% | No radioactivity could be detected | had no effect | 58 ± 12 (N=5)^d,^e,^h,^i Percent | 66 ± 3 (N=8)^d Percent | neither nalmefene (group 6) nor nalmefene glucuronide (group 4) had any significant effect | protected the intestine against the depressant effect of morphine | as effective as nalmefene | as effective as nalmefene | 
3 | C=C1CC[C@@]2(O)[C@H]3Cc4ccc(O)c5c4[C@@]2(CCN3CC2CC2)[C@H]1O5 [Nalmefene HCl, 6-methylene-6-desoxy-N-cyclopropylmethyl-14-hydroxydihydronormorphine] |  |  |  |  |  |  | 66 ± 14 (N=5)^d,^e,^f Percent | 63 ± 2 (N=8)^c Percent | neither nalmefene (group 6) nor nalmefene glucuronide (group 4) had any significant effect |  |  |  | protected the intestine against the depressant effect of morphine
